In the kinase profiling compilation of Christmann-Franck et al. (2016):

Tests used:
Assay in all cases: radiometric filter-binding kinase assay
[1] = target: TTK (human) (UniProt P33981)
[2] = target: EPHA4 (human) (UniProt P54764)
[3] = target: FLT1 (human) (UniProt P17948)
[4] = target: AURKA (human) (UniProt O14965)
[5] = target: CSNK1D (human) (UniProt P48730)
[6] = target: MAPK8 (human) (UniProt P45983)
[7] = target: IRAK4 (human) (UniProt Q9NWZ3)
[8] = target: SYK (human) (UniProt P43405)
[9] = target: RPS6KA3 KD1 KD2 (human) (UniProt P51812)
[10] = target: TBK1 (human) (UniProt Q9UHD2)
[11] = tested on: SGK1 (human), O00141 [S422D]
[12] = tested on: PAK2 (human), Q13177 [T402E]
[13] = target: FGFR1 (human) (UniProt P11362)
[14] = target: PIM1 (human) (UniProt P11309)
[15] = target: CDK2 CCNA2 (human) (UniProt P20248+P24941)
[16] = target: MELK (human) (UniProt Q14680)
[17] = target: CSK (human) (UniProt P41240)
[18] = target: MAPKAPK3 (human) (UniProt Q16644)
[19] = target: INSRR (human) (UniProt P14616)
[20] = target: JAK2 JH1 JH2 (human) (UniProt O60674)
[21] = target: BRSK2 (human) (UniProt Q8IWQ3)
[22] = target: CLK2 (human) (UniProt P49760)
[23] = target: PLK1 (human) (UniProt P53350)
[24] = target: BRSK1 (human) (UniProt Q8TDC3)
[25] = target: EPHB2 (human) (UniProt P29323)
[26] = target: MYLK (human) (UniProt Q15746)
[27] = tested on: RPS6KB1 (human), P23443 [T412E]
[28] = target: PIM3 (human) (UniProt Q86V86)
[29] = target: MAPK12 (human) (UniProt P53778)
[30] = target: RIPK2 (human) (UniProt O43353)
[31] = target: INSR (human) (UniProt P06213)
[32] = target: MAP3K7 TAB1 (human) (UniProt Q15750+O43318)
[33] = target: MAP3K11 (human) (UniProt Q16584)
[34] = target: MARK4 (human) (UniProt Q96L34)

Chain of MAPK12 (human) (P53778 whole entry, looked up): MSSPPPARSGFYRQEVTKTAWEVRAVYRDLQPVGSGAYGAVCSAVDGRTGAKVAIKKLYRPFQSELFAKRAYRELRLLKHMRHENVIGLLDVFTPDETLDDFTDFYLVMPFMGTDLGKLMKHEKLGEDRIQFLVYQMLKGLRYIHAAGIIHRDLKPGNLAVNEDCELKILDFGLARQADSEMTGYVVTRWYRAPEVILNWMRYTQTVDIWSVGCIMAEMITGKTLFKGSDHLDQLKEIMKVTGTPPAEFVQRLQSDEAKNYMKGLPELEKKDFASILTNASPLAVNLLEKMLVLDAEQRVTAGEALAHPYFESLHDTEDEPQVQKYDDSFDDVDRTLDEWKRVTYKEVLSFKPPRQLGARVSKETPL
Chain of BRSK2 (human) (Q8IWQ3 whole entry, looked up): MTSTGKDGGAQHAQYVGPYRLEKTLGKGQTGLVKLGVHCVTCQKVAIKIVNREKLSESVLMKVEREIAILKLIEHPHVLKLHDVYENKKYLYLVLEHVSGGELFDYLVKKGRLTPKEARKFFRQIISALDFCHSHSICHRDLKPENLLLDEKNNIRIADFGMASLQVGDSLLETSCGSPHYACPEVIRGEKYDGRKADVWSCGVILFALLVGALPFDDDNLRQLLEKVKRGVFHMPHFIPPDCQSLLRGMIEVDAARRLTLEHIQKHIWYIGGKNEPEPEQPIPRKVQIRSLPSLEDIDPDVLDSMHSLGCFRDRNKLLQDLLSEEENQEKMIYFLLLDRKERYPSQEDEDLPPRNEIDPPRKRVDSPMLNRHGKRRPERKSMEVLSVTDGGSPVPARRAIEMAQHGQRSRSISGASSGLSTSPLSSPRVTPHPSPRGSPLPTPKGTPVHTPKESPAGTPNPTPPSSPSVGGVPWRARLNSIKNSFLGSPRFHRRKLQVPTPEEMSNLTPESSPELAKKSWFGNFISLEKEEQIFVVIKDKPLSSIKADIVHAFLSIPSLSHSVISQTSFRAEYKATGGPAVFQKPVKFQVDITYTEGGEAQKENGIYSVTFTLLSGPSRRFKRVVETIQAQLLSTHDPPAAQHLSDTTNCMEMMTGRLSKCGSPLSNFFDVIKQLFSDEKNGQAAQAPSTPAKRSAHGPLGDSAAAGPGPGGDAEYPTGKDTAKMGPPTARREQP
Chain of SGK1 (human), O00141 [S422D] (O00141 whole entry S422D, looked up): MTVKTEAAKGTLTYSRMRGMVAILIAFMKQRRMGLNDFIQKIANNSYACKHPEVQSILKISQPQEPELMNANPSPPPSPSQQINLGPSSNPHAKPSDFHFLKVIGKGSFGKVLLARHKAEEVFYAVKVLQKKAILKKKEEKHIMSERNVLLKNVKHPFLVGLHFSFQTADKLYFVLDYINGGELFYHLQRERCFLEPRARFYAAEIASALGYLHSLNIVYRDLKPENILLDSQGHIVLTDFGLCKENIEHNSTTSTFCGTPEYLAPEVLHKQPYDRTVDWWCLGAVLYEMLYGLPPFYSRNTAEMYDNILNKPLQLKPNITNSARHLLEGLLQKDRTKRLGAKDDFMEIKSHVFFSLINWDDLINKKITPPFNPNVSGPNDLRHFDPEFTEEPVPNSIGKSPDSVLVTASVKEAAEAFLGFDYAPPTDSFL
Chain of IRAK4 (human) (Q9NWZ3 whole entry, looked up): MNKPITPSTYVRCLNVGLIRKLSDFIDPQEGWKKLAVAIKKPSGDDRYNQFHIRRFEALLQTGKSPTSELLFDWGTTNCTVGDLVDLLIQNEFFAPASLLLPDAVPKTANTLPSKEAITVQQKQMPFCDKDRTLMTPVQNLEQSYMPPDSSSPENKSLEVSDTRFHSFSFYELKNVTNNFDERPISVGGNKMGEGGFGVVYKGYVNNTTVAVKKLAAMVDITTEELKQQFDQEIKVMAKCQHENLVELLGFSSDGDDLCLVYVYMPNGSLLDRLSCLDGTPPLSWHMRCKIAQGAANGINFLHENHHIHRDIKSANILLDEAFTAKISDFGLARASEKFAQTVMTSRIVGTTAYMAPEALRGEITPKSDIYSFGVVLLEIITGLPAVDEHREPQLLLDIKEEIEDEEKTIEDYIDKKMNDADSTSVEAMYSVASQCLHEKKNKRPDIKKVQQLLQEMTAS
Chain of AURKA (human) (O14965 whole entry, looked up): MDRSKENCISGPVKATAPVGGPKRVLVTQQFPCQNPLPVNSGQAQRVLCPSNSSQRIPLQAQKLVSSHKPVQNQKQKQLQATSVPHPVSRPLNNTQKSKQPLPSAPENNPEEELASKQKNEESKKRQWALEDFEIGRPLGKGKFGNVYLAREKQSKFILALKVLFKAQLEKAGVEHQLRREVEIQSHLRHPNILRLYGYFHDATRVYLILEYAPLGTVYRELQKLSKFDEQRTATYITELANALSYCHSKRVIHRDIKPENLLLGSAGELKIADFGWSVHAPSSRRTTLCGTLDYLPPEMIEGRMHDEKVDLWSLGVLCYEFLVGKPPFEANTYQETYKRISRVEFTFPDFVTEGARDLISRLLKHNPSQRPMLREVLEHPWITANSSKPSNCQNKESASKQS
Chain of INSR (human) (P06213 whole entry, looked up): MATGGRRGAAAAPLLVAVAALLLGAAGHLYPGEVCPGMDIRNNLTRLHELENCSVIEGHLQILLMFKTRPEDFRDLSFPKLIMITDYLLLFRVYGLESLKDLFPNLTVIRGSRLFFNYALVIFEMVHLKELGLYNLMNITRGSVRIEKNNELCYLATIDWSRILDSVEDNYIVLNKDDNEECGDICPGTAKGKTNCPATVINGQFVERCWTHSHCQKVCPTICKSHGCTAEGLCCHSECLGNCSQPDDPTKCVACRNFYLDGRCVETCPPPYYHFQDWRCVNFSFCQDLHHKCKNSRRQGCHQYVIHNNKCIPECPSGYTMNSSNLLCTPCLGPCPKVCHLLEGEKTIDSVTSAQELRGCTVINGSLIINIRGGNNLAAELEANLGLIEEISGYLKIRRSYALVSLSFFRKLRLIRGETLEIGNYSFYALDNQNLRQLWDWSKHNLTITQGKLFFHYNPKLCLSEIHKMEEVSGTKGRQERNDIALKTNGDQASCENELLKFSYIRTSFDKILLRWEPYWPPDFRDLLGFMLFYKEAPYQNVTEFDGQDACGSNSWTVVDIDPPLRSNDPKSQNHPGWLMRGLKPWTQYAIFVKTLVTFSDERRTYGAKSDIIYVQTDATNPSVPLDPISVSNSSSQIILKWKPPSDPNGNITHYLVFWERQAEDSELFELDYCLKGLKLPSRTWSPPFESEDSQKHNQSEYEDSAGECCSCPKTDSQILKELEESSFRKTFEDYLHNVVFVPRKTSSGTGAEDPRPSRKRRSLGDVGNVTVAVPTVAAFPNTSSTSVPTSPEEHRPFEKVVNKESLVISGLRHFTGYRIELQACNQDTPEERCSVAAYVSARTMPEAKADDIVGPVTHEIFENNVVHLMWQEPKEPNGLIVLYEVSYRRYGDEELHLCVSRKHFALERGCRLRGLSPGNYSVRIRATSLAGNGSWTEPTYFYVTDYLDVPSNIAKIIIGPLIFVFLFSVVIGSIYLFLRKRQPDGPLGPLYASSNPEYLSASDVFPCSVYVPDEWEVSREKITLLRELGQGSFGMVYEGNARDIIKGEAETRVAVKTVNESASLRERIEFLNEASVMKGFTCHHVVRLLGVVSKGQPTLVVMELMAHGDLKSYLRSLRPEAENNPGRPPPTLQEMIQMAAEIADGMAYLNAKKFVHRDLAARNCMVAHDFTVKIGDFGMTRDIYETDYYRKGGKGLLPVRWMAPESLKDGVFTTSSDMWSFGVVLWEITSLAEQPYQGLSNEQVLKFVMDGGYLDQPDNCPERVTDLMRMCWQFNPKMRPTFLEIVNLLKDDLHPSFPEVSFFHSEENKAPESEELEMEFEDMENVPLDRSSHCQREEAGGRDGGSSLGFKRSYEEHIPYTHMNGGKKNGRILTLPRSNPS
Chain of MAPK8 (human) (P45983 whole entry, looked up): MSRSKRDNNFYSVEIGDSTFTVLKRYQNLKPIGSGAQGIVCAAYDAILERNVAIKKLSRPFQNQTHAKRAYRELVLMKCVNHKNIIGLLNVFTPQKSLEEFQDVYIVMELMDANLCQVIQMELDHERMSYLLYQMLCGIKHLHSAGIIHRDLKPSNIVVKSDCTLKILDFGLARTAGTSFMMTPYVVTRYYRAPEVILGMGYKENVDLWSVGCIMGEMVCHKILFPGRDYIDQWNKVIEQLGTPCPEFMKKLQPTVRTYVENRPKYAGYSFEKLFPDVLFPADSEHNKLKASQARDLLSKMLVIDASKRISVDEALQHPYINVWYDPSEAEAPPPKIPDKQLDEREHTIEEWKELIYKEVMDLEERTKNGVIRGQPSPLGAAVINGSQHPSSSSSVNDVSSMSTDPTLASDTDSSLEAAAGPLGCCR
Chain of CSK (human) (P41240 whole entry, looked up): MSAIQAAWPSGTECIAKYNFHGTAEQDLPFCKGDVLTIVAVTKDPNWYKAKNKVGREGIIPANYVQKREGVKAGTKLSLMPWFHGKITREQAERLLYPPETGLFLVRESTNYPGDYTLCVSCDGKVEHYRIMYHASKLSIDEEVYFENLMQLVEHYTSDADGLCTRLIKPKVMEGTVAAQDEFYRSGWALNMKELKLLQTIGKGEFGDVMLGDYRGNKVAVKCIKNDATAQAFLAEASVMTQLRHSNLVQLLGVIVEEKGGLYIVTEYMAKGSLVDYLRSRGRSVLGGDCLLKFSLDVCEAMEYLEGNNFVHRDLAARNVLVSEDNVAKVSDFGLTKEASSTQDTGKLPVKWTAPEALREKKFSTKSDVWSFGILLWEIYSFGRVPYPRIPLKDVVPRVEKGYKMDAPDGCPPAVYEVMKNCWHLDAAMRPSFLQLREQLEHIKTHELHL
Chain of PIM1 (human) (P11309 whole entry, looked up): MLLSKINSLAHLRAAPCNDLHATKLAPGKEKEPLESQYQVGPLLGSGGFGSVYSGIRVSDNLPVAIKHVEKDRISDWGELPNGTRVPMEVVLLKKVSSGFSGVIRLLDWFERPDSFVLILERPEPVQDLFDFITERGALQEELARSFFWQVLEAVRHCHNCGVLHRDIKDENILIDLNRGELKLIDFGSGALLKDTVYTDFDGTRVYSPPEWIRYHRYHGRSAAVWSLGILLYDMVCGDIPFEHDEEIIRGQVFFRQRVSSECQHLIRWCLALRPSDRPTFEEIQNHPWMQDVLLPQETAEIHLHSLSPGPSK

SMILES: NC(=O)c1cc2c(-c3cccc(-c4ccccc4)c3)cnc(N)c2s1
- residual activity ([1]; compound 0.1 µM): 87%
- residual activity ([1]; compound 1.0 µM): 55%
- residual activity ([1]; compound 10.0 µM): 24%
- residual activity ([2]; compound 0.1 µM): 93%
- residual activity ([2]; compound 1.0 µM): 89%
- residual activity ([2]; compound 10.0 µM): 71%
- residual activity ([3]; compound 0.1 µM): 100%
- residual activity ([3]; compound 1.0 µM): 55%
- residual activity ([3]; compound 10.0 µM): 22%
- residual activity ([4]; compound 0.1 µM): 95%
- residual activity ([4]; compound 1.0 µM): 99%
- residual activity ([4]; compound 10.0 µM): 89%
- residual activity ([5]; compound 0.1 µM): 109%
- residual activity ([5]; compound 1.0 µM): 73%
- residual activity ([5]; compound 10.0 µM): 18%
- residual activity ([6]; compound 0.1 µM): 111%
- residual activity ([6]; compound 1.0 µM): 69%
- residual activity ([6]; compound 10.0 µM): 15%
- residual activity ([7]; compound 0.1 µM): 127%
- residual activity ([7]; compound 1.0 µM): 92%
- residual activity ([7]; compound 10.0 µM): 44%
- residual activity ([8]; compound 0.1 µM): 96%
- residual activity ([8]; compound 1.0 µM): 88%
- residual activity ([8]; compound 10.0 µM): 56%
- residual activity ([9]; compound 0.1 µM): 108%
- residual activity ([9]; compound 1.0 µM): 84%
- residual activity ([9]; compound 10.0 µM): 53%
- residual activity ([10]; compound 0.1 µM): 98%
- residual activity ([10]; compound 1.0 µM): 91%
- residual activity ([10]; compound 10.0 µM): 47%
- residual activity ([11]; compound 0.1 µM): 92%
- residual activity ([11]; compound 1.0 µM): 58%
- residual activity ([11]; compound 10.0 µM): 46%
- residual activity ([12]; compound 0.1 µM): 100%
- residual activity ([12]; compound 1.0 µM): 93%
- residual activity ([12]; compound 10.0 µM): 84%
- residual activity ([13]; compound 0.1 µM): 104%
- residual activity ([13]; compound 1.0 µM): 96%
- residual activity ([13]; compound 10.0 µM): 85%
- residual activity ([14]; compound 0.1 µM): 112%
- residual activity ([14]; compound 1.0 µM): 89%
- residual activity ([14]; compound 10.0 µM): 41%
- residual activity ([15]; compound 0.1 µM): 97%
- residual activity ([15]; compound 1.0 µM): 87%
- residual activity ([15]; compound 10.0 µM): 35%
- residual activity ([16]; compound 0.1 µM): 99%
- residual activity ([16]; compound 1.0 µM): 57%
- residual activity ([16]; compound 10.0 µM): 15%
- residual activity ([17]; compound 0.1 µM): 90%
- residual activity ([17]; compound 1.0 µM): 82%
- residual activity ([17]; compound 10.0 µM): 58%
- residual activity ([18]; compound 0.1 µM): 93%
- residual activity ([18]; compound 1.0 µM): 84%
- residual activity ([18]; compound 10.0 µM): 69%
- residual activity ([19]; compound 0.1 µM): 66%
- residual activity ([19]; compound 1.0 µM): 26%
- residual activity ([19]; compound 10.0 µM): 16%
- residual activity ([20]; compound 0.1 µM): 101%
- residual activity ([20]; compound 1.0 µM): 90%
- residual activity ([20]; compound 10.0 µM): 43%
- residual activity ([21]; compound 0.1 µM): 109%
- residual activity ([21]; compound 1.0 µM): 108%
- residual activity ([21]; compound 10.0 µM): 130%
- residual activity ([22]; compound 0.1 µM): 50%
- residual activity ([22]; compound 1.0 µM): 10%
- residual activity ([22]; compound 10.0 µM): 2%
- residual activity ([23]; compound 0.1 µM): 108%
- residual activity ([23]; compound 1.0 µM): 98%
- residual activity ([23]; compound 10.0 µM): 97%
- residual activity ([24]; compound 0.1 µM): 102%
- residual activity ([24]; compound 1.0 µM): 81%
- residual activity ([24]; compound 10.0 µM): 89%
- residual activity ([25]; compound 0.1 µM): 90%
- residual activity ([25]; compound 1.0 µM): 74%
- residual activity ([25]; compound 10.0 µM): 24%
- residual activity ([26]; compound 0.1 µM): 98%
- residual activity ([26]; compound 1.0 µM): 53%
- residual activity ([26]; compound 10.0 µM): 17%
- residual activity ([27]; compound 0.1 µM): 112%
- residual activity ([27]; compound 1.0 µM): 90%
- residual activity ([27]; compound 10.0 µM): 39%
- residual activity ([28]; compound 0.1 µM): 101%
- residual activity ([28]; compound 1.0 µM): 88%
- residual activity ([28]; compound 10.0 µM): 42%
- residual activity ([29]; compound 0.1 µM): 93%
- residual activity ([29]; compound 1.0 µM): 76%
- residual activity ([29]; compound 10.0 µM): 38%
- residual activity ([30]; compound 0.1 µM): 86%
- residual activity ([30]; compound 1.0 µM): 36%
- residual activity ([30]; compound 10.0 µM): 12%
- residual activity ([31]; compound 0.1 µM): 103%
- residual activity ([31]; compound 1.0 µM): 81%
- residual activity ([31]; compound 10.0 µM): 18%
- residual activity ([32]; compound 1.0 µM): 8%
- residual activity ([32]; compound 10.0 µM): 2%
- residual activity ([33]; compound 0.1 µM): 74%
- residual activity ([33]; compound 1.0 µM): 19%
- residual activity ([33]; compound 10.0 µM): 4%
- residual activity ([34]; compound 0.1 µM): 88%
- residual activity ([34]; compound 1.0 µM): 82%
- residual activity ([34]; compound 10.0 µM): 46%

SMILES: Cc1cccc(-c2nn(C(=S)Nc3ccccc3)cc2-c2ccnc3ccccc23)n1
- residual activity ([1]; compound 0.1 µM): 113%
- residual activity ([1]; compound 1.0 µM): 98%
- residual activity ([2]; compound 0.1 µM): 108%
- residual activity ([2]; compound 1.0 µM): 98%
- residual activity ([3]; compound 0.1 µM): 27%
- residual activity ([3]; compound 1.0 µM): 8%
- residual activity ([4]; compound 0.1 µM): 120%
- residual activity ([4]; compound 1.0 µM): 107%
- residual activity ([5]; compound 0.1 µM): 90%
- residual activity ([5]; compound 1.0 µM): 46%
- residual activity ([6]; compound 0.1 µM): 111%
- residual activity ([6]; compound 1.0 µM): 101%
- residual activity ([7]; compound 0.1 µM): 101%
- residual activity ([7]; compound 1.0 µM): 99%
- residual activity ([8]; compound 0.1 µM): 109%
- residual activity ([8]; compound 1.0 µM): 106%
- residual activity ([9]; compound 0.1 µM): 126%
- residual activity ([9]; compound 1.0 µM): 109%
- residual activity ([10]; compound 0.1 µM): 102%
- residual activity ([10]; compound 1.0 µM): 106%
- residual activity ([11]; compound 0.1 µM): 107%
- residual activity ([11]; compound 1.0 µM): 103%
- residual activity ([12]; compound 0.1 µM): 111%
- residual activity ([12]; compound 1.0 µM): 101%
- residual activity ([13]; compound 0.1 µM): 64%
- residual activity ([13]; compound 1.0 µM): 37%
- residual activity ([14]; compound 0.1 µM): 105%
- residual activity ([14]; compound 1.0 µM): 97%
- residual activity ([15]; compound 0.1 µM): 93%
- residual activity ([15]; compound 1.0 µM): 102%
- residual activity ([16]; compound 0.1 µM): 111%
- residual activity ([16]; compound 1.0 µM): 105%
- residual activity ([17]; compound 0.1 µM): 97%
- residual activity ([17]; compound 1.0 µM): 93%
- residual activity ([18]; compound 0.1 µM): 107%
- residual activity ([18]; compound 1.0 µM): 97%
- residual activity ([19]; compound 0.1 µM): 98%
- residual activity ([19]; compound 1.0 µM): 103%
- residual activity ([20]; compound 0.1 µM): 107%
- residual activity ([20]; compound 1.0 µM): 93%
- residual activity ([21]; compound 0.1 µM): 117%
- residual activity ([21]; compound 1.0 µM): 92%
- residual activity ([22]; compound 0.1 µM): 106%
- residual activity ([22]; compound 1.0 µM): 98%
- residual activity ([23]; compound 0.1 µM): 99%
- residual activity ([23]; compound 1.0 µM): 106%
- residual activity ([24]; compound 0.1 µM): 110%
- residual activity ([24]; compound 1.0 µM): 95%
- residual activity ([25]; compound 0.1 µM): 113%
- residual activity ([25]; compound 1.0 µM): 95%
- residual activity ([26]; compound 0.1 µM): 104%
- residual activity ([26]; compound 1.0 µM): 89%
- residual activity ([27]; compound 0.1 µM): 108%
- residual activity ([27]; compound 1.0 µM): 105%
- residual activity ([28]; compound 0.1 µM): 91%
- residual activity ([28]; compound 1.0 µM): 117%
- residual activity ([29]; compound 0.1 µM): 102%
- residual activity ([29]; compound 1.0 µM): 88%
- residual activity ([30]; compound 0.1 µM): 26%
- residual activity ([30]; compound 1.0 µM): 9%
- residual activity ([31]; compound 0.1 µM): 108%
- residual activity ([31]; compound 1.0 µM): 94%
- residual activity ([32]; compound 0.1 µM): 99%
- residual activity ([32]; compound 1.0 µM): 81%
- residual activity ([33]; compound 0.1 µM): 104%
- residual activity ([33]; compound 1.0 µM): 107%
- residual activity ([34]; compound 0.1 µM): 98%
- residual activity ([34]; compound 1.0 µM): 87%
